# Assay results: patent US7271239B2, “D-isomers of antimicrobial peptide” (The Research Foundation of State University of New York, priority 2004, dated 2007)
# Where no end group is shown, it is not given here.
# Legend:
# [1] = tested on: HOK-16B cells; experiment: MTS cell viability assay; type: cell-based, human; settings: 200 μM
# Procedure: FIG. 6. Effect of peptides on viability of (A) HOK-16B cells and (B) KB cells. The toxic effect of the compounds on the cells was determined by calorimetric assay using a CellTiter 96 AQueous One Solution cell proliferation assay (MTS) kit, as described in the text. Briefly, the cells were grown to about 80% confluence, harvested, washed, resuspended in KGM, and dispensed into a 96-well microtiter plate. They were then exposed to different concentrations of peptides or amphotericin B at 37° C. and 5% CO2 for 1.5 h. MTS agent was then added to each well, and the cells were further incubated for 4 h. Absorbance at 490 nm was then measured using a microplate reader. MTS reduction is an indication of cell viability. The viability is expressed as relative absorbance (percentage of no-agent control). Data represent the average and standard deviation of results from two independent experiments.
# Cell culture. The HOK-16B cell line (originated from primary normal human keratinocytes) was kindly provided by No-Hee Park, UCLA School of Dentistry. The KB cell line was obtained from the American Type Culture Collection (CLL-17). […]
# MTS cell viability assay. The toxic effect of the compounds on the cells was determined by calorimetric assay using a CellTiter 96 AQueous One Solution cell proliferation assay (MTS) kit (Promega, Wis.). […] Absorbance at 490 nm was then measured using a microplate reader. […]
# [2] = tested on: C. albicans DIS; experiment: Killing assay in whole human saliva
# Procedure: FIG. 1. Candidacidal activity of MUC7 12-mer-L, MUC7 12-mer-D, Hsn5 12-mer, and Magainin-II in whole human saliva (WHS). Each peptide at final concentration of 25, 50, and 100 μM was incubated with C. albicans (DIS isolate at 1×10^5 cells/ml) and 20 μl of clarified or unclarified saliva (SL; hatched bars), saliva containing Protease inhibitor cocktail (PIC) (SL+PIC; filled bars), or saliva containing ethylenediamine tetraacetic acid (EDTA) (SL+EDTA; clear bars) at 37° C. for 1.5 h. At the end of incubation, the samples were diluted 20-fold and aliquots plated on SDA. The colony forming units (CFU) were counted after 24 h of incubation. The loss of C. albicans viability was determined by the equation (1−CFU of the test group/CFU of the control group)×100%. The data represent three individual trials, and in each trial the sample was duplicated; the error bars represent standard deviation.
# FIG. 4. […] Stimulated whole saliva was collected from 5 healthy subjects. Peptides (50 μM) were incubated with C. albicans cells (1×10^5) in the each individual saliva containing PIC (SL+PIC) at 37° C. for 1.5 hr and the loss of the cell viability was determined. Values represent the mean±S.D. (n=5).
# Killing assays in saliva. Unclarified saliva (unstimulated whole saliva) was collected from five healthy individuals during the fasting. Clarified saliva was obtained by passing the unclarified saliva through the 0.2 μm pore size sterile syringe filter (VWR scientific products, West Chester, Pa.). Candidacidal activity assays were performed as described previously (4), except the phosphate buffer was substituted with saliva. […] Saliva without peptides was a blank control. After incubation at 37° C. for 1.5 h, the reactions were diluted 20-fold in PB and aliquots (50 μl, ˜120 cells) of each sample were plated on SDA. The plates were incubated at 37° C. for 1 day aerobically and the number of colony-forming units (CFUs) was counted. Percentage of killing was calculated as (1−amount of viable cells in the test group)/(amount of viable cells in the control group)×100%.
# [3] = tested on: C. albicans ATCC96112; experiment: Killing assay in clarified saliva; type: cell-based
# Excerpt: (§1) Killing assays in saliva. […] Saliva without peptides was a blank control.
# (§2) Activity of peptides in saliva against different candida strains. The in vitro candidacidal activities of MUC7 12-mer-L and D, Hsn5 12-mer, and Magainin-II against four Candida strains in clarified saliva are shown in Table 1. The data are presented as percent loss of cell viability compared to non-treated control. The following observations were made. […] In the presence of PIC, the activity values of MUC7 12-mer-L and of Magainin-II rose close to a 100% for all strains, but not that of Hsn5 peptide, which achieved the similar activity only against the C. albicans (ATCC strain). The activities against the other strains were much lower, in particular against both strains of C. glabrata (30-40%). […] This was true especially in saliva without PIC.
# [4] = tested on: C. krusei; experiment: Killing assay in clarified saliva; type: cell-based
# Excerpt: as §1, §2
# [5] = tested on: C. glabrata ATCC90030; experiment: Killing assay in clarified saliva; type: cell-based
# Excerpt: as §1, §2
sequence,measurement,setting,value
GIGKFLHSAKKFGKAFVGEIMNS [Magainin-II],loss of HOK-16B cell viability,[1],about 30%
same,candidacidal activity (killing),"[2]; 100 μM, clarified saliva, no PIC/EDTA",0%
same,killing,"[2]; 100 μM, unclarified saliva, no PIC/EDTA",0%
same,percent loss of cell viability,"[2]; clarified saliva, PIC+ (Table 1)",94.42^± %
same,percent loss of cell viability,"[2]; clarified saliva, PIC− (Table 1)",0.00%
same,percent loss of cell viability,[3]; PIC+,97.90%
same,percent loss of cell viability,[3]; PIC−,7.17%
same,percent loss of cell viability,[4]; PIC+,100%
same,percent loss of cell viability,[4]; PIC−,0.00%
same,percent loss of cell viability,[5]; PIC+,99.06^± %
same,percent loss of cell viability,[5]; PIC−,0.00%
